Source: US12624350B2, “High-throughput single-nuclei and single-cell libraries and methods of making and of using” (ILLUMINA, INC., priority 2019, dated 2026)

Key:
Format in all cases: cell-based, human
[1] = tested on: A549; test: sci-Plex of pracinostat co-treatment with acetyl-CoA precursors or enzyme inhibitors; conditions: 24 hours
Description: (§1) To validate this further, we sought to shift the distribution of cells along the HDAC inhibitor trajectory by modulating cellular acetyl-CoA levels. We treated A549 and MCF7 cells with pracinostat in the presence and absence of acetyl-CoA precursors (acetate, pyruvate, or citrate) or inhibitors of enzymes (ACLY, ACSS2, or PDH) involved in replenishing acetyl-CoA pools. After treatment, cells were harvested and processed using sci-Plex and trajectories constructed for each cell line (FIGS. 39 and 40).
(§2) For 96-well experiments, adherent cells were trypsinized, washed with PBS and plated in tissue culture treated 96 well flat bottom plates (Thermo Fisher Scientific, cat no. 12-656-66) at 25,000 cells per well in 100 μL of media. Suspension cells were washed with PBS and plated in 96 well V-bottom tissue culture plates (Thermo Fisher Scientific, cat no. 549935) at 25,000 cells per well in 100 μL of media. Cells were allowed to recover for 24 hours before treatment with 1 μL of a 1:10 dilution of the appropriate compound or vehicle in PBS to maintain a vehicle concentration of 0.1% for all wells. Cells were then exposed to small molecules at the specified concentration for either 24 or 72 hours. For experiments where cells were co-treated with HDAC inhibitors and either acetate, pyruvate, citrate, ACSS2 inhibitor (EMD Millipore Inc., Cat No. 533756), ACLY inhibitor (Cayman Chemicals, BMS-303141 Cat No. 943962-47-8) or PDH inhibitor (Cayman Chemicals, Cat No. 504817), cells were treated 24 hours after plating and harvested after 24 hours. In this set of experiments, all wells contained a final concentration of 0.2% DMSO to match treatment with both the HDAC inhibitor and inhibitors of metabolic processes.
(§3) Gene expression profiles were visualized with Monocle 3, which uses UMAP to project them into a two or three dimensional space. Briefly, Monocle 3 first calculates size factors for every cell. Size factors were calculated as the log UMI counts observed in a single cell divided by the geometric mean of log UMI counts from all measured cells. After scaling each nucleus' UMI counts by its library size factor, Monocle3 adds a pseudocount of 1, and log transforms the counts. Next, these log-transformed profiles are projected onto the top 25 principal components. These PCA coordinates were transformed by Monocle 3 (using an approach similar to the removeBatchEffect( ) function in the limma package (42)) according to the model ‘˜log(UMIs)+replicate’ (FIG. 9) or ‘log(UMIs)+viability+proliferation index+replicate’. Adjusted PCA coordinates for each cell are used to initialize UMAP. Unless otherwise noted, UMAP was run with the following parameters: 50 nearest neighbors, min_dist=0.1, inter-cell distance assessed by cosine similarity. UMAP projection of cells after dual HDAC inhibition and acetyl-COA precursor supplementation or acetyl-CoA generating enzyme inhibition was performed as described with the exception that PCA initialization was performed on the top 1000 most overdispersed genes. Louvain community detection was then performed on this UMAP space using the python package ‘louvain’. Trajectory reconstruction was then performed as described in (21).

[2] = tested on: MCF7; test: as above; conditions: 24 hours
Description: as §1, §2, §3

[3] = tested on: lung adenocarcinoma-derived (A549) cells; test: sciPlex-ATAC-seq chemical screen (single-cell chromatin accessibility); conditions: A549, 24 hours
Protocol: Each well of a 96-well culture dish was treated for 24 hours with Nutlin-3A (p53 agonist), SAHA (broad spectrum histone deacetylase inhibitor), BMS345541 (NF-kB inhibitor), Dexamethasone (glucocorticoid receptor agonist) or a vehicle control. Moreover, we varied the dose of drug added to each well, such that the effects of each compound could be evaluated at seven different concentrations. Finally, all treatments were performed in biological triplicate (FIG. 42A). After applying unique labels to each well, cells from all conditions were pooled for parallel preparation of single cell accessible chromatin profiles.
Adherent cells grown in 96 well format were prepared by first aspirating the existing media. 50 µL of TrypLE (Termo-Fisher) was then added per well and the plate was incubated at 37 C for 15 minutes for A549. After incubation, 1504 of 1×DMEM (Gibco)+10% FBS (Gibco) was added to quench the TrypLE reaction. The 2004 volume cell suspension in each well was then transferred into a V-bottom 96 well plate, preserving the well orientations. Cells were then spun for 5 minutes at 300 g to pellet cells before aspirating media. Cell pellets were washed with 100 μL 1×DPBS and then pelleted at 300 g for 5 minutes. […]
Pooled, hash-labeled nuclei were thawed on ice, inspected for nuclei integrity, counted and further adjusted to 2.5 million nuclei/mL if necessary. […]

[4] = tested on: A549; test: sci-Plex of A549 cells treated for 72 hours with one of 48 compounds; conditions: A549, 72 hours
Protocol: Such heterogeneity could be explained by cells executing a defined transcriptional program asynchronously, with the dose of drug that the cells are exposed to modulating the rates of their progression through it. To test this hypothesis, we sequenced the transcriptomes of 64,440 A549 cells that were treated for 72 hours with one of 48 compounds, including many of the HDAC inhibitors from the large sci-Plex screen.
For 96-well experiments, adherent cells were trypsinized, washed with PBS and plated in tissue culture treated 96 well flat bottom plates (Thermo Fisher Scientific, cat no. 12-656-66) at 25,000 cells per well in 100 μL of media. Suspension cells were washed with PBS and plated in 96 well V-bottom tissue culture plates (Thermo Fisher Scientific, cat no. 549935) at 25,000 cells per well in 100 μL of media. Cells were allowed to recover for 24 hours before treatment with 1 μL of a 1:10 dilution of the appropriate compound or vehicle in PBS to maintain a vehicle concentration of 0.1% for all wells. […]
To organize cells treated with HDAC inhibitors into a trajectory cells were sampled to equalize the number of cells represented between the three cell lines or between treatments at 24 and 72 hrs. […] All other cells' pseudodoses was measured as the geodesic distance between their nearest principal graph node to an origin node.

[5] = tested on: A549, MCF7 and K562 cells; test: flow cytometry of total cellular acetylated lysines; set-up: dose or concentration left out as unconfirmed; conditions: 24 hours
Protocol: A549 and MCF7 cells were seeded in 6 cm dishes at 1.6×10^6 cells per plate. K562 cells were seeded in T25 cm2 flasks at 1.6×10^6 cells per flask. […] After treatment cells were harvested as described above, pellets washed twice in PBS, resuspended in 500 μL of cold PBS and fixed by the addition of 5 mL of ice-cold ethanol while vortexing at low speed. Cells were stored at −20 C prior to processing for flow cytometry analysis. For flow cytometry, ethanol was removed and fixed cells washed twice with PBS containing 1% BSA (PBS-B) and blocked for 1 hour at room temperature. Then, blocking buffer was removed and cells were incubated in PBS containing 1% BSA and 0.1% tryton X-100 (PBS-BT) as well as a 1:500 dilution of mouse anti-acetyl-lysine antibody (cat no. ICP0390, ImmuneChem Pharmaceuticals Inc) for 2 hours at room temperature. After incubation, cells were washed twice with PBS-BT and incubated with goat anti-mouse Alexa-647 in PBS-BT for 1 hour at room temperature. Lastly, cells were washed twice with PBS-BT, once with PBS-B and resuspended in PBS-B containing 5 μg/ml Hoechst 33258 (Life Sciences Technologies) to stain the DNA. Then the levels of total acetylated-lysine and DNA content was analyzed by flow cytometry on an LSRII flow cytometer (BD Biosciences). Quantification and downstream analysis was performed using FlowJo10 (FlowJo.LLC).

[6] = tested on: A549; test: large-scale sci-Plex screen (sci-RNA-seq3) of 188 compounds; conditions: A549, 24 hours; for distinct transcriptional states induced by the same drug (focal enrichments in UMAP): cells from all four doses
Protocol: We exposed three well-characterized human cancer cell lines, A549 (lung adenocarcinoma), K562 (chronic myelogenous leukemia), and MCF7 (mammary adenocarcinoma), to each of these 188 compounds at four doses (10 nM, 100 nM, 1 mM, and 10 mM) in duplicate, randomizing compounds and doses across well positions in replicate culture plates (data not shown). These conditions, together with vehicle controls, accounted for 4608 of 4992 independently treated cell populations in this experiment. After treatment, we lysed cells to expose nuclei, hashed them with a specific combination of two oligos (FIG. 10A), and performed sci-RNA-seq3 (21).
Lysis was conducted in the 96 well V-bottom plate. […] For the large compound screen, 500 femtomoles of an additional oligo was used to uniquely index each 96 well treatment plate. After lysis with 3 strokes of multichannel pipette, cells were fixed by addition of 200 μL of fixation buffer (5% Paraformaldehyde, 1.25×PBS). Nuclei were then fixed on ice for 15 minutes before pooling into a trough. Nuclei were pooled by plate into a 50 mL conical tube and pelleted by centrifugation at 500×g for 5 minutes. Subsequently, cells were resuspended in 500 μL of nuclei suspension buffer (NSB; (10 mM Tris-HCl, pH 7.4, 10 mM NaCl, 3 mM MgCl2, 1% Superase RNA Inhibitor, 1% 0.2 mg/mL Ultrapure BSA)). Finally, nuclei from all plates were pooled into a single conical tube and nuclei were pelleted by centrifugation at 500×g for 5 minutes. Nuclei were then resuspended in 1 mL of NSB and flash frozen into liquid nitrogen in 100 μL aliquots. Nuclei were then stored at −80 C until further processing with sci-RNA-seq.

[7] = tested on: A549; test: pilot sci-Plex experiment (sci-RNA-seq2), four compounds; conditions: A549, 24 hours, seven doses
Protocol: We exposed A549, a human lung adenocarcinoma cell line, to one of four compounds: dexamethasone (a corticosteroid agonist), nutlin-3a (a p53-Mdm2 antagonist), BMS-345541 (an inhibitor of nuclear factor kB-dependent transcription), or vorinostat [suberoylanilide hydroxamic acid (SAHA), an HDAC inhibitor], for 24 hours across seven doses in triplicate for a total of 84 drug-dose-replicate combinations and additional vehicle controls (FIG. 6A and FIG. 7A). We labeled nuclei from each well and subjected them to sci-RNA-seq2 (FIG. 7, B to D, and Table 1).
To quantify the “population average” transcriptional response of A549 cells to each of the four drugs, we modeled each gene's expression as a function of dose through generalized linear regression. […] Additionally, we evaluated whether the number of cells recovered at each concentration could be used to infer toxicity akin to traditional screens.

## COc1ccc(-c2ccccc2)cc1NS(=O)(=O)c1cc(Cl)cc(Cl)c1O [ACLY inhibitor]
[1]
  shift of pracinostat treated cells along the HDAC inhibitor trajectory: no such shift was observed
[2]
  shift of pracinostat treated cells along the HDAC inhibitor trajectory: shifted cells farther along the HDAC inhibitor trajectory

## COCCNC(=O)Nc1ccc2nc(-c3cccs3)c(-c3cccs3)nc2c1 [ACSS2 inhibitor]
[1]
  shift of pracinostat treated cells along the HDAC inhibitor trajectory: no such shift was observed
[2]
  shift of pracinostat treated cells along the HDAC inhibitor trajectory: shifted cells farther along the HDAC inhibitor trajectory

## O=C(CCCCCCC(=O)Nc1ccccc1)NO [SAHA, suberoylanilide hydroxamic acid]
[3]
  accessibility of non-coding sites upstream of the COPS7A locus: dose dependent accessibility
[3]; seven concentrations
  dosage-dependent change of the chromatin regulatory landscape: increasingly altered regulatory landscapes with higher doses

## Cc1nc(-c2cccnc2)sc1C(=O)Nc1ccccc1-c1cn2c(CN3CCOCC3)csc2n1 [SRT1024]
[4]
  focal concentrations of cells in coembedded UMAP projection, 72 hours versus 24 hours: new focal concentrations of cells at 72 hours

## CN(C)Cc1c(C(=O)NCCOc2ccc(C(=O)NO)cc2)oc2ccccc12 [abexinostat]
[5]
  acetylated lysine levels: markedly increased acetylated lysine levels

## CC(=O)O [acetate]
[1]
  shift of pracinostat treated cells along the HDAC inhibitor trajectory: capable of blocking pracinostat treated cells from reaching the end of the HDAC inhibitor trajectory
[2]
  shift of pracinostat treated cells along the HDAC inhibitor trajectory: capable of blocking pracinostat treated cells from reaching the end of the HDAC inhibitor trajectory

## O=C(O)CC(O)(CC(=O)O)C(=O)O [citrate]
[1]
  shift of pracinostat treated cells along the HDAC inhibitor trajectory: capable of blocking pracinostat treated cells from reaching the end of the HDAC inhibitor trajectory
[2]
  shift of pracinostat treated cells along the HDAC inhibitor trajectory: capable of blocking pracinostat treated cells from reaching the end of the HDAC inhibitor trajectory

## C/C(=C\c1csc(C)n1)[C@@H]1C[C@@H]2O[C@@H]2CCC[C@H](C)[C@H](O)[C@@H](C)C(=O)C(C)(C)[C@@H](O)CC(=O)O1 [epothilone A]
[6]
  distinct transcriptional states induced by the same drug (focal enrichments in UMAP): associated with three such focal enrichments

## C/C(=C\c1csc(C)n1)[C@@H]1C[C@@H]2O[C@]2(C)CCC[C@H](C)[C@H](O)[C@@H](C)C(=O)C(C)(C)[C@@H](O)CC(=O)O1 [epothilone B]
[6]
  distinct transcriptional states induced by the same drug (focal enrichments in UMAP): associated with three such focal enrichments

## COc1ccc(C2=N[C@@H](c3ccc(Cl)cc3)[C@@H](c3ccc(Cl)cc3)N2C(=O)N2CCNC(=O)C2)c(OC(C)C)c1 [nutlin-3a]
[7]
  drug-specific pathways revealed by gene ontology analysis of differentially expressed genes: p53 signaling

## CCCCc1nc2cc(/C=C/C(=O)NO)ccc2n1CCN(CC)CC [pracinostat]
[6]
  heterogeneity of cell response along the HDAC inhibitor pseudodose trajectory at each dose: homogeneous responses
[5]
  acetylated lysine levels: markedly increased acetylated lysine levels

## CC1(C)O[C@@H]2C[C@H]3[C@@H]4CCC5=CC(=O)C=C[C@]5(C)[C@@]4(F)[C@@H](O)C[C@]3(C)[C@]2(C(=O)CO)O1 [triamcinolone acetonide]
[6]; cluster 18, Fisher's exact test FDR<1%
  share of the cells of one small UMAP cluster that were treated with the compound: 95%
